Results taken from article PMC8480329, “Enzymology and Regulation of δ^1-Pyrroline-5-Carboxylate Synthetase 2 From Rice” (Frontiers in Plant Science, 2021).
Where “and” joins values, the source holds several entries; their conditions need not be identical. Identical values can stand only once. Like-named read-outs stand apart in the source and are kept apart here. Values belong to the molecule of their own block, whether it stands above or below them.

Experiments:
[1] = target: T1, Oryza sativa P5C synthetase 2 (Oryza sativa subsp. japonica, UniProt O04226); assay: NADPH oxidation assay (full forward, physiological reaction of P5C synthetase); details: for effect on P5CS2 activity (in words): increasing concentrations, range tested; for Vmax / Km: named substrate varied, Lineweaver-Burk plot; for Vmax: others fixed at 20mM glutamate, 30°C, pH 7.5; for concentrations found inhibitory (exceeding): level above which activity is reduced; for Km: read-out: KM(app), others saturating (20mM glutamate, 4mM ATP, 0.4mM NADPH), ATP value from concentrations ≤4mM
T1 sequence (O04226 1-716): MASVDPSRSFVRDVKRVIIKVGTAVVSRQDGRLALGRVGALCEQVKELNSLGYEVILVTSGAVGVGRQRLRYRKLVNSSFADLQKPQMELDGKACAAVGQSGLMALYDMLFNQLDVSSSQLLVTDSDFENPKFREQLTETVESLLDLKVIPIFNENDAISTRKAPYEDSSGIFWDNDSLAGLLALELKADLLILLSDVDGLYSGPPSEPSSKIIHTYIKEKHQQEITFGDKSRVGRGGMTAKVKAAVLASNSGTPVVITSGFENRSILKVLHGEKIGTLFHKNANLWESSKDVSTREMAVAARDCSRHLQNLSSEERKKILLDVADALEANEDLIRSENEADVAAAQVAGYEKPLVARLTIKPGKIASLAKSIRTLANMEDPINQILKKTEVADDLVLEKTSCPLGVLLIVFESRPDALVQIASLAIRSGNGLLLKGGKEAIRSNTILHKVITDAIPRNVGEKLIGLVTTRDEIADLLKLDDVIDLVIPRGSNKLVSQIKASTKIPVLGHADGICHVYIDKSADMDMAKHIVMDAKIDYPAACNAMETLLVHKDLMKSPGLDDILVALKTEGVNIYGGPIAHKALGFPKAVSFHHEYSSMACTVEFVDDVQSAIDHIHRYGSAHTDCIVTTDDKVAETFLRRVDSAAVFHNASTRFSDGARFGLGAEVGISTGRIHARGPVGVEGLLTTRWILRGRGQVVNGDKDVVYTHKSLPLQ
Procedure: The physiological, forward reaction of P5C synthetase was measured by following the glutamate-dependent oxidation of NADPH in the presence of ATP. Aliquots of the purified enzyme preparations (0.5–1μg protein) were incubated in a final volume of 200μl with 20mML-glutamate, 4mM ATP, and 0.4mM NADPH in 50mM Tris-HCl buffer, pH 7.5. When aiming at the evaluation of the effect of chlorides on enzyme activity, Tris-HCl buffer concentration was lowered to 10mM, or replaced with 10mM potassium phosphate buffer, pH 7.5. Incubation proceeded at 30°C for up to 20min. The decrease of absorbance at 340nm was determined at 0.5min intervals against exact blanks in which glutamate had been omitted. Assays were either performed in cuvettes with 0.2 or 1cm pathlength (UVette; Eppendorf, Milan, Italy), or in 96-microwell plates. In the former case, OD340 was determined with a Novaspec plus spectrophotometer (Amersham Biosciences, Milan, Italy) equipped with an UVette adaptor. In the latter case, the plate was equilibrated at 30°C prior to enzyme addition, and absorbance was measured using a Ledetect plate reader (Labexim, Lengau, Austria) equipped with a LED plugin at 340nm. Each sample was carried out in triplicate (technical replications). Each determination was repeated with at least three different enzyme preparations (biological replications). Presented data refer to a single enzyme preparation, and are means±SE over technical replicates. Linear and non-linear regressions of data, as well as kinetic constant values, were computed using Prism 6 for Windows, version 6.03 (GraphPad Software, San Diego, CA, United States).

[2] = system: P5CS from V. aconitifolia; details: cited from earlier work; for Km: glutamyl kinase assay, ref Zhang et al., 1995
P5CS from A. thaliana = system: P5CS from A. thaliana; set-up: method as in Parre et al., 2010; details: half-reaction; ref Parre et al., 2010; cited from earlier work
[3] = substrate: N[C@@H](CCC(=O)O)C(=O)O; assay: purified protein, by the assay type; details: other: named substrate varied, others saturating (20mM glutamate, 4mM ATP, 0.4mM NADPH); Lineweaver-Burk plot; ATP value from concentrations ≤4mM; pH 7.5; 30.0 °C
Procedure: The physiological, forward reaction of P5C synthetase was measured by following the glutamate-dependent oxidation of NADPH in the presence of ATP. […] When aiming at the evaluation of the effect of chlorides on enzyme activity, Tris-HCl buffer concentration was lowered to 10mM, or replaced with 10mM potassium phosphate buffer, pH 7.5. Incubation proceeded at 30°C for up to 20min. The decrease of absorbance at 340nm was determined at 0.5min intervals against exact blanks in which glutamate had been omitted. Assays were either performed in cuvettes with 0.2 or 1cm pathlength (UVette; Eppendorf, Milan, Italy), or in 96-microwell plates. In the former case, OD340 was determined with a Novaspec plus spectrophotometer (Amersham Biosciences, Milan, Italy) equipped with an UVette adaptor. In the latter case, the plate was equilibrated at 30°C prior to enzyme addition, and absorbance was measured using a Ledetect plate reader (Labexim, Lengau, Austria) equipped with a LED plugin at 340nm. Each sample was carried out in triplicate (technical replications). Each determination was repeated with at least three different enzyme preparations (biological replications). […] Linear and non-linear regressions of data, as well as kinetic constant values, were computed using Prism 6 for Windows, version 6.03 (GraphPad Software, San Diego, CA, United States).

[4] = read-out: IC50 (concentration inhibiting activity by 50%), cations, added as chlorides, 10mM potassium phosphate buffer pH 7.5, Mg++ data relative to equimolar NaCl
[5] = read-out: IC50 (concentration inhibiting activity by 50%), 20mM glutamate, 4mM ATP, 0.4mM NADPH, 50mM Tris-HCl pH 7.5, 30°C, non-linear regression
[6] = IC50 (concentration inhibiting activity by 50%), 20mM glutamate, 4mM ATP, 0.4mM NADPH, 50mM Tris-HCl pH 7.5, 30°C, non-linear regression
[7] = IC50 (concentration inhibiting activity by 50%)

Molecule: Nc1ncnc2c1ncn2[C@@H]1O[C@H](COP(=O)(O)OP(=O)(O)O)[C@@H](O)[C@H]1O [ADP]
concentrations found inhibitory (exceeding) [1]: > 4 mM
IC50 [1, 5]: 9 mM and 9.06 mM

Molecule: O=C(O)CCC(=O)C(=O)O [α-ketoglutarate]
effect on P5CS2 activity up to 100mM (in words) [1]: ineffective

Molecule: O=C(O)C1CCN1 (stereo not drawn) [azetidine-2-carboxylic acid]
IC50 [1, 6]: 11 mM
IC50 relative to proline (fold higher) ([1]; versus IC50 of L-proline): 3.8 fold

Molecule: [Ca+2] [Ca^++]
effect on P5CS2 activity (in words) [1]: strong inhibitory effect
IC50 [1, 4]: 4.09 mM

Molecule: O=C(O)[C@@H]1CC(O)CN1 (stereo partly drawn) [L-4-hydroxyproline]
IC50 [1, 6]: 89.5 mM
effect on P5CS2 activity (in words) [1]: partial inhibition

Molecule: NC(=O)C[C@H](N)C(=O)O [Asparagine]
effect on P5CS2 activity up to 100mM (in words) [1]: ineffective

Molecule: NCCC[C@H](N)C(=O)O [ornithine]
IC50 [1, 7]: 52.6 mM
concentrations found inhibitory (exceeding) [1]: exceeding 2 mM

Molecule: Nc1ncnc2c1ncn2[C@@H]1O[C@H](COP(=O)(O)OP(=O)(O)OP(=O)(O)O)[C@@H](O)[C@H]1O [ATP]
Km [2]: 2700 µM
concentrations found inhibitory (exceeding) [1]: exceeding 4 mM
Vmax ([1]; 4mM ATP, 0.4mM NADPH): 17.96±0.46 nkat (mg protein)^−1
Ki ([1]; read-out: KI value for ATP (substrate inhibition), fit to substrate inhibition model, 20mM glutamate, 0.4mM NADPH): 11.6 ± 5.1 mM
Km [1]: 760 µM and 764 µM
Km (P5CS from A. thaliana): 1500 µM

Molecule: O=P(O)(O)C1CCCN1 (stereo not drawn) [phosphonoproline]
IC50 [1, 6]: 42.2 mM
effect on P5CS2 activity (in words) [1]: partial inhibition

Molecule: O=C(O)[C@@H]1CCCN1 [L-proline]
IC50 ([2]; ref Hu et al., 1992, read-out: concentration giving 50%-inhibition): 6 mM
catalytic rate retained ([1]; 10mM proline): less than 20%
IC50 [1, 7]: 2.91 mM

B1: Oryza sativa P5C synthetase 2 (Oryza sativa Japonica Group) (protein)
chain: MASVDPSRSFVRDVKRVIIKVGTAVVSRQDGRLALGRVGALCEQVKELNSLGYEVILVTSGAVGVGRQRLRYRKLVNSSFADLQKPQMELDGKACAAVGQSGLMALYDMLFNQLDVSSSQLLVTDSDFENPKFREQLTETVESLLDLKVIPIFNENDAISTRKAPYEDSSGIFWDNDSLAGLLALELKADLLILLSDVDGLYSGPPSEPSSKIIHTYIKEKHQQEITFGDKSRVGRGGMTAKVKAAVLASNSGTPVVITSGFENRSILKVLHGEKIGTLFHKNANLWESSKDVSTREMAVAARDCSRHLQNLSSEERKKILLDVADALEANEDLIRSENEADVAAAQVAGYEKPLVARLTIKPGKIASLAKSIRTLANMEDPINQILKKTEVADDLVLEKTSCPLGVLLIVFESRPDALVQIASLAIRSGNGLLLKGGKEAIRSNTILHKVITDAIPRNVGEKLIGLVTTRDEIADLLKLDDVIDLVIPRGSNKLVSQIKASTKIPVLGHADGICHVYIDKSADMDMAKHIVMDAKIDYPAACNAMETLLVHKDLMKSPGLDDILVALKTEGVNIYGGPIAHKALGFPKAVSFHHEYSSMACTVEFVDDVQSAIDHIHRYGSAHTDCIVTTDDKVAETFLRRVDSAAVFHNASTRFSDGARFGLGAEVGISTGRIHARGPVGVEGLLTTRWILRGRGQVVNGDKDVVYTHKSLPLQ
Km [3]: 2690 ± 190 µM

Second part, led by results:

effect on P5CS2 activity (in words) [1]: completely ineffective
Molecule: NC(=O)c1ccc[n+]([C@@H]2O[C@H](COP(=O)([O-])OP(=O)(O)OC[C@H]3O[C@@H](n4cnc5c(N)ncnc54)[C@H](O)[C@@H]3O)[C@@H](O)[C@H]2O)c1 [NAD^+]

Vmax ([1]; 4mM ATP, 0.4mM NADPH): 17.38±0.52 nkat (mg protein)^−1
Molecule: N[C@@H](CCC(=O)O)C(=O)O [L-Glu, L-glutamate]
Km [2]: 3600 µM

inhibition of activity ([1]; Mg++ ions at 20mM): 25%
effect on P5CS2 activity (in words) [1]: strong inhibitory effect
IC50 [1, 4]: 34.8 mM
Molecule: [Mg+2] [Mg^++]

effect on P5CS2 activity up to 100mM (in words) [1]: unable to interfere
Molecule: O=C(O)[C@H]1CCCN1 [D-proline]

concentrations found inhibitory (exceeding) [1]: higher than 20 mM
Molecule: O=P(O)(O)O [HPO4^−−]

effect on P5CS2 activity (in words) [1]: did not exert any significant effect
Molecule: O=C(O)C1CCC=N1 (stereo not drawn) [P5C, δ^1-pyrroline-5-carboxylate]

stimulation of P5CS2 activity ([1]; chlorides in the 10–100mM range): up to 40%
concentration range with stimulatory effect ([1]; chlorides of various cations): 10 to 100 mM
Molecule: Cl [chloride anions]

IC50 [1, 5]: 0.4 mM and 0.389 mM
Molecule: NC(=O)c1ccc[n+]([C@@H]2O[C@H](COP(=O)([O-])OP(=O)(O)OC[C@H]3O[C@@H](n4cnc5c(N)ncnc54)[C@H](OP(=O)(O)O)[C@@H]3O)[C@@H](O)[C@H]2O)c1 [NADP^+]

IC50 [1]: 63.9 mM
Molecule: N=C(N)NCCC[C@H](N)C(=O)O [arginine]

Vmax ([1]; 4mM ATP, 0.4mM NADPH): 18.36±0.64 nkat (mg protein)^−1
Km [1]: 45 ± 4 µM
Molecule: NC(=O)C1=CN([C@@H]2O[C@H](COP(=O)(O)OP(=O)(O)OC[C@H]3O[C@@H](n4cnc5c(N)ncnc54)[C@H](OP(=O)(O)O)[C@@H]3O)[C@@H](O)[C@H]2O)C=CC1 [NADPH]

effect on P5CS2 activity (in words) [1]: did not exert any significant effect
Molecule: O=P(O)(O)O [inorganic phosphate]

effect on P5CS2 activity (in words) [1]: completely ineffective
Molecule: O=C(O)[C@@H]1CCCCN1 [Pipecolate, pipecolic acid]

concentrations found inhibitory (exceeding) [1]: exceeding 100 mM
Molecule: [Na+] [sodium cations]

utilization as electron donor instead of NADPH ([1]; highest concentration tested 0.5mM): No detectable utilization
Molecule: NC(=O)C1=CN([C@@H]2O[C@H](COP(=O)(O)OP(=O)(O)OC[C@H]3O[C@@H](n4cnc5c(N)ncnc54)[C@H](O)[C@@H]3O)[C@@H](O)[C@H]2O)C=CC1 [NADH]

IC50 [1]: 89.7 mM
concentrations found inhibitory (exceeding) [1]: exceeding 10 mM
Molecule: NC(=O)CC[C@H](N)C(=O)O [glutamine]
